In article PMC11714206, “Massively Parallel Screening of Toll/Interleukin‐1 Receptor (TIR)‐Derived Peptides Reveals Multiple Toll‐Like Receptors (TLRs)‐Targeting Immunomodulatory Peptides” (Advanced Science, 2024):
One block for each sequence: values may come before it.

Target: T1, MyD88^TIR (Homo sapiens, UniProt Q99836)
T1 construct: MyD88 (residues 148–296); 6xHis; made in house; host or cells: E. coli BL21 (DE3)
Experiment: T‐Surf phage library (P8 and P3) selection against MyD88^TIR, four rounds, NGS read counts
Type: binding
Conditions: for P3_MyD88 Rank (after) / P3_MyD88 Rank (before): P3 library; for P8_MyD88 Rank (after) / P8_MyD88 Rank (before): P8 library
How it was run: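 Coat TIR domain 5 µg mL^−1 overnight; block 0.2% BSA/PBS 1 h, 4 °C; add phage library 1 h, RT; wash ×4 PBS/0.5% Tween‐20; elute 100 mM HCl, neutralize Tris; amplify in TG1, PEG‐precipitate. Repeat to round 4; barcode PCR, NovaSeq, count reads.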

[1] = P3_MyD88: rank by count after grouping
[2] = P3_MyD88: rank by count before grouping
[3] = selection against MyD88, rank after grouping
[4] = selection against MyD88, rank before grouping
[5] = 4R selection against MyD88, rank after grouping
[6] = 4R selection against MyD88, rank before grouping
[7] = selection against MyD88, rank by count after grouping
[8] = selection against MyD88, rank by count before grouping
[9] = P8_MyD88: rank by NGS read count after grouping
[10] = P8_MyD88: rank by NGS read count before grouping
[11] = selection against MyD88 TIR, rank by count after grouping
[12] = selection against MyD88 TIR, rank by count before grouping
[13] = P8_MyD88: rank by count after grouping
[14] = P8_MyD88: rank by count before grouping

T1 sequence (Q99836 148-296): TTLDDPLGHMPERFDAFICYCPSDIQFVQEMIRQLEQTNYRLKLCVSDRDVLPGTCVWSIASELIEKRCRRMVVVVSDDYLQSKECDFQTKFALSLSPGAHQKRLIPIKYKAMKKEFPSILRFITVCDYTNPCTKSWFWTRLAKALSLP

- Rank (after) [1]: 392
- Rank (before) [2]: 2842
Sequence: QYSDTLLEHTANFRM

- P3_MyD88 Rank (after) [3]: 492
- P3_MyD88 Rank (before) [4]: 2837
Sequence: QYSDTLLEHTSKFPA

- P3_MyD88 Rank (after) [5]: 605
- P3_MyD88 Rank (before) [6]: 2832
Sequence: QYSGTPLAHTSKFPDE

- Rank (after) [1]: 432
- Rank (before) [2]: 2847
Sequence: QYSHTLLAHTSKFPDE

- Rank (after) [1]: 410
- Rank (before) [2]: 2692
Sequence: RELGVVDDGSVSALEM

- Rank (after) [1]: 469
- Rank (before) [2]: 3286
Sequence: RERPVGAQRGVRSLAT

- P8_MyD88 Rank (after) [7]: 765
- P8_MyD88 Rank (before) [8]: 3753
Sequence: RFGGDTFLEYLVLISM

- Rank (after) [1]: 449
- Rank (before) [2]: 2551
Sequence: RFWERLRPALKERLP

- P3_MyD88 Rank (after) [5]: 598
- P3_MyD88 Rank (before) [6]: 2545
Sequence: RFWERLRYMIPEVSHQ

- P3_MyD88 Rank (after) [7]: 708
- P3_MyD88 Rank (before) [8]: 2552
Sequence: RFWESQRYMKPNVSHT

- Rank (after) [9]: 968
- Rank (before) [10]: 3399
Sequence: RGFHWTEWENFVDIED

- P3_MyD88 Rank (after) [5]: 674
- P3_MyD88 Rank (before) [6]: 2608
Sequence: RISAFHKQLVMAVKAQ

- P3_MyD88 Rank (after) [7]: 706
- P3_MyD88 Rank (before) [8]: 2609
Sequence: RISAFHQQLLMALKTQ

- P3_MyD88 Rank (after) [5]: 650
- P3_MyD88 Rank (before) [6]: 2595
Sequence: RISAFHQQLVIALEAQ

- P3_MyD88 Rank (after) [11]: 263
- P3_MyD88 Rank (before) [12]: 1105
Sequence: RISAFHQQLVMALKERLP

- P3_MyD88 Rank (after) [5]: 614
- P3_MyD88 Rank (before) [6]: 2599
Sequence: RISAFHQQLVMALNTQ

- P3_MyD88 Rank (after) [3]: 526
- P3_MyD88 Rank (before) [4]: 2656
Sequence: RKGDLISDELRIPLEE

- P3_MyD88 Rank (after) [11]: 277
- P3_MyD88 Rank (before) [12]: 2580
Sequence: RLLKWKEALHQFHSLVG

- P3_MyD88 Rank (after) [5]: 629
- P3_MyD88 Rank (before) [6]: 2693
Sequence: RSFREGLWRLLELRKK

- Rank (after) [1]: 414
- Rank (before) [2]: 2694
Sequence: RSFREGPWRLLELSKK

- Rank (after) [1]: 431
- Rank (before) [2]: 2695
Sequence: RSFRKGLWRLLELSNK

- P3_MyD88 Rank (after) [5]: 643
- P3_MyD88 Rank (before) [6]: 2616
Sequence: RSSAFQQQLVMALKAQ

- P3_MyD88 Rank (after) [7]: 690
- P3_MyD88 Rank (before) [8]: 2633
Sequence: RTLFENLWESVYNISQ

- P3_MyD88 Rank (after) [7]: 732
- P3_MyD88 Rank (before) [8]: 2643
Sequence: RTLLENLWASVDISHK

- P3_MyD88 Rank (after) [3]: 559
- P3_MyD88 Rank (before) [4]: 2682
Sequence: RVAHEISTKMKIFATI

- P3_MyD88 Rank (after) [11]: 249
- P3_MyD88 Rank (before) [12]: 2561
Sequence: RYIMPHPQELIQQKQP

- P8_MyD88 Rank (after) [3]: 502
- P8_MyD88 Rank (before) [4]: 3704
Sequence: SAASDDFWDGLIRMIE

- Rank (after) [13]: 481
- Rank (before) [14]: 3737
Sequence: SAAYDDIWERLNRMIE

- Rank (after) [13]: 469
- Rank (before) [14]: 3707
Sequence: SAAYGDYWVRQIRMIE

- Rank (after) [9]: 873
- Rank (before) [10]: 3705
Sequence: SAAYYEFGERLIGRVE

- Rank (after) [9]: 1024
- Rank (before) [10]: 3747
Sequence: SADYDDVGDRLIRMIE

Sequence: SCFCEELCCVLELSKK
- P3_MyD88 Rank (after) [5]: 656
- P3_MyD88 Rank (before) [6]: 2938

- P3_MyD88 Rank (after) [7]: 711
- P3_MyD88 Rank (before) [8]: 3005
Sequence: SDLRVVDDGSVSPLAM

- Rank (after) [1]: 104
- Rank (before) [2]: 1178
Sequence: SDLRVVEDGSVSPLEM

- P8_MyD88 Rank (after) [7]: 728
- P8_MyD88 Rank (before) [8]: 3748
Sequence: SDVDHLTYLVRVRLCR

- Rank (after) [13]: 100
- Rank (before) [14]: 106
- Population (P8_MyD88 pool: P8 T-Surf phage library, 4th round of selection against MyD88 TIR, share of NGS reads): 0.022%
Sequence: SEDTRNNFLYHLYEAL

- P3_MyD88 Rank (after) [3]: 508
- P3_MyD88 Rank (before) [4]: 2953
Sequence: SEIYATSPWALDVLVL

- P3_MyD88 Rank (after) [3]: 548
- P3_MyD88 Rank (before) [4]: 3001
Sequence: SEKYAKSPWAKVGLVL

- P3_MyD88 Rank (after) [5]: 587
- P3_MyD88 Rank (before) [6]: 3010
Sequence: SELCVVAEGSVSPLDM

- P3_MyD88 Rank (after) [11]: 192
- P3_MyD88 Rank (before) [12]: 3063
Sequence: SELREVADGSVSPLEM

- P3_MyD88 Rank (after) [3]: 575
- P3_MyD88 Rank (before) [4]: 3061
Sequence: SELREVVGGAVSQLVM

- P3_MyD88 Rank (after) [11]: 201
- P3_MyD88 Rank (before) [12]: 3055
Sequence: SELRVEDDGSVIPLEM

- Rank (after) [1]: 464
- Rank (before) [2]: 3019
Sequence: SELRVVDDGRVSPMAM

- P3_MyD88 Rank (after) [11]: 210
- P3_MyD88 Rank (before) [12]: 3038
Sequence: SELRVVDDGSVSPLK

- Rank (after) [1]: 182
- Rank (before) [2]: 3029
Sequence: SELRVVDDGSVSPLVT

- P3_MyD88 Rank (after) [3]: 570
- P3_MyD88 Rank (before) [4]: 3040
Sequence: SELRVVDDGSVSPPNL

- P3_MyD88 Rank (after) [7]: 741
- P3_MyD88 Rank (before) [8]: 3045
Sequence: SELRVVDDGSVSPRET

- Rank (after) [1]: 412
- Rank (before) [2]: 3051
Sequence: SELRVVDKETDKIQTPLKNA

- Rank (after) [1]: 472
- Rank (before) [2]: 3068
Sequence: SELSVVDDGSVSPLGM
